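Step 1: Grow cells in 96-well plates. Step 2: Expose to compound for 48 hours at 5 concentrations. Step 3: Interpolate endpoints linearly; if unreached, use highest concentration. GI50 marks 50% less growth.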 Active and inactive are the calls of the source. Cut-off read from the data, not from the text of the source: active = GI50 up to about 1.1 µM and inactive = higher. Bounds are passed on as bounds.

Test systems include OVCAR-3; SF-268; SW-620; SK-MEL-5; DU-145; NCI/ADR-RES; OVCAR-4; IGROV-1; NCI-H460; HCT-15; U-251; UACC-257; COLO 205; TK-10; CCRF-CEM; ACHN; OVCAR-8; MDA-N.
Holding throughout (test): inhibition of tumour cell growth, NCI panel, 48 h

Consider `O=C(O)c1ccc(Oc2nc3ccccc3s2)cc1`, for which the GI50 in the test on OVCAR-3, in the test with SF-268, in the test on SW-620, in the test on SK-MEL-5, in the test with DU-145 and in the test with NCI/ADR-RES was > 100 µM (inactive) in each case. The GI50 in the test on OVCAR-4 is > 100 µM (inactive); with IGROV-1, > 100 µM (inactive); with NCI-H460, > 100 µM (inactive); in the test with HCT-15 it was over 100 µM; in the test with U-251 it was > 100 µM (inactive); in the test on UACC-257, > 100 µM (inactive). For the same compound, the GI50 with COLO 205, in the test on TK-10, with CCRF-CEM, in the test on ACHN and in the test on OVCAR-8 was > 100 µM (inactive) in each case.

For the compound `COc1ccc(-c2cc(-c3ccncc3)nc(N)c2-c2ccc(F)cc2)cc1`, the GI50 with OVCAR-3 is 27.9 µM (inactive); in the test on SF-268, 44 µM (inactive); in the test with SW-620 it was 9.18 µM (inactive); with SK-MEL-5 it was 35.1 µM (inactive); in the test on NCI/ADR-RES it was 24.9 µM (inactive); with OVCAR-4 it was 26.7 µM (inactive). Besides, the GI50 with IGROV-1 is 10.6 µM (inactive); in the test on NCI-H460 it was 15.5 µM (inactive); with HCT-15, 8.91 µM; in the test on U-251, > 100 µM (inactive); in the test on UACC-257, 24.2 µM (inactive); in the test on COLO 205 it was 5.43 µM (inactive). The GI50 in the test with TK-10 was 35.2 µM (inactive); in the test with CCRF-CEM it was > 100 µM (inactive); in the test on ACHN, 3.76 µM (inactive); in the test on OVCAR-8 it was 41.3 µM (inactive).

Consider `COc1ccc2cc(Oc3ccc(Cl)cc3)c(=O)oc2c1`, for which the GI50 with OVCAR-3 is > 100 µM (inactive); in the test with SF-268, 50.8 µM (inactive); in the test with SW-620 it was > 100 µM (inactive); with SK-MEL-5, > 100 µM (inactive); in the test with DU-145, > 100 µM (inactive); in the test with OVCAR-4, > 100 µM (inactive). Moreover, the GI50 in the test on MDA-N was > 100 µM (inactive); with IGROV-1, > 100 µM (inactive); in the test with NCI-H460 it was > 100 µM (inactive); in the test on HCT-15 it was over 100 µM; in the test on U-251, > 10 µM (inactive); with UACC-257, > 100 µM (inactive). Besides, the GI50 in the test with TK-10, with CCRF-CEM, in the test on ACHN and in the test with OVCAR-8 was > 100 µM (inactive) in each case.

`CCN(CC)c1ccc2cc(C(=O)Nc3ccccc3OC)c(=N)oc2c1`: the GI50 in the test with OVCAR-3 was 43.2 µM (inactive); with SF-268 it was 8.15 µM (inactive); in the test with SW-620 it was 8.67 µM (inactive); in the test with SK-MEL-5, 32.1 µM (inactive); in the test on DU-145 it was 28.2 µM (inactive); in the test on NCI/ADR-RES, 23.7 µM (inactive). Also, the GI50 in the test on OVCAR-4 was 27.5 µM (inactive); in the test with IGROV-1, 7.55 µM (inactive); with NCI-H460, 5.16 µM (inactive); with HCT-15 it was 19.7 µM; in the test with U-251, 10.1 µM (inactive); in the test with UACC-257, 40.8 µM (inactive). The GI50 with COLO 205 is 24.8 µM (inactive); in the test with CCRF-CEM, 2.89 µM (inactive); in the test on ACHN, 11.3 µM (inactive); in the test on OVCAR-8, 3.61 µM (inactive).

With `COc1cccc2c1OCC1Cc3ccccc3OC21` (stereo not given), the GI50 with OVCAR-3 was 26.5 µM (inactive); in the test on SF-268 it was 60.4 µM (inactive); with SW-620, 41.8 µM (inactive); in the test with SK-MEL-5, 14.8 µM (inactive); with DU-145 it was 49.8 µM (inactive); in the test with NCI/ADR-RES it was 33.4 µM (inactive). Further, the GI50 with MDA-N is 25.4 µM (inactive); with IGROV-1, > 100 µM (inactive); with HCT-15, 43 µM; in the test with U-251, 43.9 µM (inactive); in the test with UACC-257 it was 24.4 µM (inactive); in the test on COLO 205 it was 32.2 µM (inactive). Besides, the GI50 with TK-10 is 21.1 µM (inactive); in the test on CCRF-CEM it was 54.1 µM (inactive); in the test on OVCAR-8 it was 44.9 µM (inactive).

Take `O=C(Nc1ccccc1)c1cc(S(=O)(=O)n2ccnc2O)c(S)cc1Cl`: the GI50 in the test with OVCAR-3, with SF-268, in the test with SW-620, in the test with SK-MEL-5, in the test on DU-145 and in the test on NCI/ADR-RES was > 100 µM (inactive) in each case. The GI50 in the test with MDA-N is > 100 µM (inactive); in the test with IGROV-1 it was > 100 µM (inactive); with NCI-H460 it was > 100 µM (inactive); in the test with HCT-15, over 100 µM; with U-251, > 100 µM (inactive); in the test with UACC-257, > 100 µM (inactive). Further, the GI50 in the test with COLO 205, in the test with TK-10, in the test with CCRF-CEM, with ACHN and in the test with OVCAR-8 was > 100 µM (inactive) in each case.

As to `Cc1oc(N)c(S(=O)(=O)c2ccc(Cl)cc2)c1C`, the GI50 with OVCAR-3 is 29.1 µM (inactive); with SF-268 it was 43.1 µM (inactive); in the test on SW-620 it was > 100 µM (inactive); in the test with SK-MEL-5, 44.7 µM (inactive); with DU-145 it was > 100 µM (inactive); in the test on NCI/ADR-RES, 34.9 µM (inactive). Besides, the GI50 was 21.7 µM (inactive) in the test with OVCAR-4; 85.5 µM (inactive) with IGROV-1; 22.2 µM (inactive) with NCI-H460; 34 µM in the test on HCT-15; > 100 µM (inactive) with U-251; 40.2 µM (inactive) in the test with UACC-257. Besides, the GI50 was > 10 µM (inactive) in the test on COLO 205; 83.6 µM (inactive) with TK-10; 78.9 µM (inactive) with CCRF-CEM; 37 µM (inactive) with ACHN; 50.5 µM (inactive) in the test with OVCAR-8.

Take `C[C@H]1SC(c2ccc(Cl)cc2Cl)N(NC(=O)c2ccncc2)C1=O` (stereo not given in full): the GI50 is 42 µM (inactive) with OVCAR-3; 22.5 µM (inactive) in the test on SF-268; 19.2 µM (inactive) in the test with SK-MEL-5; 38.1 µM (inactive) with DU-145; 36.9 µM (inactive) in the test with NCI/ADR-RES; 23 µM (inactive) with MDA-N. The GI50 is 41.2 µM (inactive) in the test with IGROV-1; 45.5 µM (inactive) in the test on NCI-H460; 42 µM in the test on HCT-15; 40.6 µM (inactive) in the test with U-251; 37.7 µM (inactive) in the test with COLO 205; 30.1 µM (inactive) in the test on CCRF-CEM. Moreover, the GI50 in the test with ACHN is 27.5 µM (inactive); in the test with OVCAR-8, 49.9 µM (inactive).

Take `O=C(NC1CCN(Cc2ccccc2)CC1)c1ccccc1I`: the GI50 was 43.9 µM (inactive) in the test on OVCAR-3; 39.3 µM (inactive) in the test with SF-268; 19.7 µM (inactive) in the test with SW-620; 16.9 µM (inactive) in the test with SK-MEL-5; 61.9 µM (inactive) in the test on DU-145; 25.7 µM (inactive) in the test with NCI/ADR-RES. The GI50 with OVCAR-4 is 86.3 µM (inactive); in the test with IGROV-1, 42.6 µM (inactive); in the test with NCI-H460 it was 24.7 µM (inactive); in the test with HCT-15, 17.7 µM; with U-251 it was 23.2 µM (inactive); in the test on UACC-257, 18.1 µM (inactive). In addition, the GI50 is 18.9 µM (inactive) with COLO 205; 21.6 µM (inactive) with TK-10; 24.3 µM (inactive) with CCRF-CEM; 49.3 µM (inactive) in the test with ACHN; 39.8 µM (inactive) in the test with OVCAR-8.

(Values after ChEMBL document CHEMBL1201862, “PubChem BioAssay data set” (2004).)
